# Molecular target: T1, humanen CGRP-Rezeptor (Homo sapiens, UniProt O60894+Q16602)
# T1 construct: SK-N-MC-Zellen werden in "Dulbecco's modified Eagle Medium" kultiviert; endogenous in cells; host or cells: SK-N-MC cells (membrane homogenate)
# Assay: Binding studies with SK-N-MC cells expressing the human CGRP receptor (125I-CGRP displacement on membrane homogenate)
# Settings: 50 pM 125I-Iodotyrosyl-CGRP, 180 min at room temperature
# Method: A. Bindungsstudien mit (den humanen CGRP-Rezeptor exprimierenden) SK-N-MC-Zellen
# SK-N-MC-Zellen werden in "Dulbecco's modified Eagle Medium" kultiviert. Das Medium konfluenter Kulturen wird entfernt. Die Zellen werden zweimal mit PBS-Puffer (Gibco 041-04190 M) gewaschen, durch Zugabe von PBS-Puffer, versetzt mit 0.02% EDTA, abgelöst und durch Zentrifugation isoliert. Nach Resuspension in 20 ml "Balanced Salts Solution" [BSS (in mM): NaCl 120, KCl 5.4, NaHCO3 16.2, MgSO4 0.8, NaHPO4 1.0, CaCl2 1.8, D-Glucose 5.5, HEPES 30, pH 7.40] werden die Zellen zweimal bei 100 x g zentrifugiert und in BSS resuspendiert. Nach Bestimmung der Zellzahl werden die Zellen mit Hilfe eines Ultra-Turrax homogenisiert und für 10 Minuten bei 3000 x g zentrifugiert. Der Überstand wird verworfen und das Pellet in Tris-Puffer (10 mM Tris, 50 mM NaCl, 5 mM MgCl2, 1 mM EDTA, pH 7.40), angereichert mit 1% Rinderserum-Albumin und 0.1% Bacitracin, rezentrifugiert und resuspendiert (1 ml / 1000000 Zellen). Das Homogenat wird bei -80°C eingefroren. Die Membranpräparationen sind bei diesen Bedingungen für mehr als 6 Wochen stabil.
# Nach Auftauen wird das Homogenat 1:10 mit Assay-Puffer (50 mM Tris, 150 mM NaCl, 5 mM MgCl2, 1 mM EDTA, pH 7.40) verdünnt und 30 Sekunden lang mit einem Ultra-Turrax homogenisiert. 230 µl des Homogenats werden für 180 Minuten bei Raumtemperatur mit 50 pM ^125I-Iodotyrosyl-Calcitonin-Gene-Related Peptide (Amersham) und ansteigenden Konzentrationen der Testsubstanzen in einem Gesamtvolumen von 250 µl inkubiert. Die Inkubation wird durch rasche Filtration durch mit Polyethylenimin (0.1%) behandelte GF/B-Glasfaserfilter mittels eines Zellharvesters beendet. Die an Protein gebundene Radioaktivität wird mit Hilfe eines Gammacounters bestimmt. Als nichtspezifische Bindung wird die gebundene Radioaktivität nach Gegenwart von 1 µM humanem CGRP-alpha während der Inkubation definiert.
# Die Analyse der Konzentrations-Bindungskurven erfolgt mit Hilfe einer computergestützten nichtlinearen Kurvenanpassung.
# T1 sequence (Q16602 23-461): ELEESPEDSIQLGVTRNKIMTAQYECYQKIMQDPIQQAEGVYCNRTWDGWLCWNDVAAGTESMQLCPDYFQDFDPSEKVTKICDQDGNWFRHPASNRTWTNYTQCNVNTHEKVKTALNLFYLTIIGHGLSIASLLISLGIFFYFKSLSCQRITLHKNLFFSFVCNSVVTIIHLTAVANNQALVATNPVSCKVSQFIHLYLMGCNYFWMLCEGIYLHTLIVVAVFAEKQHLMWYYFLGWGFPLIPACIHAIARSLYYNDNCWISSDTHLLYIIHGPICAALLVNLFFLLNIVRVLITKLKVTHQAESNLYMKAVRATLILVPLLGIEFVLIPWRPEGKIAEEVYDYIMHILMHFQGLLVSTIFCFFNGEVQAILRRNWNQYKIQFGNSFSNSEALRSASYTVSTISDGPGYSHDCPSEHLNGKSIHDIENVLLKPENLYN
# T1 sequence (O60894 27-148): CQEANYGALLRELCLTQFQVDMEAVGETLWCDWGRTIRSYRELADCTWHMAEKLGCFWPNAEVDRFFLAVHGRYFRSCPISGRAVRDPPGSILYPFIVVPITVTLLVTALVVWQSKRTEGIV
row,SMILES,Ki
1,Cn1cc(C(=O)c2cc(N3CCC(n4cc(-c5ccccc5)[nH]c4=O)CC3)ncn2)c2ccccc21 [(14)],6 nM
2,Cn1cc(C(=O)c2cc(N3CCC(n4c(=O)[nH]c5ccccc54)CC3)ncn2)c2ccccc21 [(9)],251 nM
3,Cn1cc(C(=O)c2cc(N3CCC(n4c(=O)[nH]c5ncccc54)CC3)ncn2)c2ccc(F)cc21 [(21)],2 nM
4,O=C(c1cc(N2CCC(n3c(=O)[nH]c4ncccc43)CC2)ncn1)c1c[nH]c2ccccc12 [(1)],120 nM
5,O=C(c1cc(N2CCC(n3c(=O)[nH]c4ncccc43)CC2)ncn1)c1cn(CCCN2CCCCC2)c2ccccc12 [(25)],16 nM
6,COc1ccc2c(c1)CCN(C1CCN(c3cc(C(=O)c4cn(C)c5ccccc45)ncn3)CC1)C(=O)N2 [(4)],4 nM
7,CN(C)CCCn1cc(C(=O)c2cc(N3CCC(n4c(=O)[nH]c5ncccc54)CC3)ncn2)c2ccccc21 [(42)],6 nM

# Same assay, conditions: 50 pM 125I-Iodotyrosyl-CGRP, 180 min at room temperature, read-out: Ki
row,Ki,SMILES
1,25 nM,Cc1ccc2c(C(=O)c3cc(N4CCC(n5c(=O)[nH]c6ncccc65)CC4)ncn3)cn(C)c2c1 [(30)]
2,5 nM,Cn1cc(C(=O)c2cc(N3CCC(n4c(=O)[nH]c5ncccc54)CC3)ncn2)c2ccccc21 [(2)]

# From patent publication EP2065382A1, “CGRP antagonists” (Boehringer Ingelheim Pharma GmbH & Co. KG, priority 2007, dated 2009)
